Consider one compound from article PMC8998618, “A Pharmacokinetic and Metabolism Study of the TRPC6 Inhibitor SH045 in Mice by LC-MS/MS” (International Journal of Molecular Sciences, 2022).

Series [1] concerns cytochrome P450 isoenzymes. Kind of series: cytochrome P450 isoenzyme inhibition with isoform-specific inhibitors in liver microsomes. The following applies: MLM and HLM, 2 µM SH045, isoform-specific inhibitors. It counts as in vitro ADME, mouse and human. Here is the method: To determine possible metabolizing pathways of SH045 in MLM and HLM, an in vitro inhibition approach was performed with CYP-isoform specific inhibitors. […]
homogenates, and shaken vigorousl y for 5 min. 40 µL urine was mixed with 4 µL of IS and extracted with 156 µL pure […]
All microsome incubations were stopped with 1 mL ice -cold ACN containing 5 µg/mL IS, vortexed for 1 min and cooled at -20 °C for 10 min.
After centrifugation of mixtures from tissue or microsomal incubations for 15 min at 4 °C, the supernatants were filtered through a 0.2 -µm-pore-size syringe filter and stored in the autosampler at 6 °C until analysis by LC-MS/MS as […]
SM5 Tissue binding of SH045
The tissue binding of SH045 was analyzed exemplarily in lung, liver and kidney homogenate using ultrafiltration [5]. […] 20 µL of the mixture and the filtrate were analyzed for SH045. […]
Testosterone (10 µM in ACN/DPBS 2/3, v/v) instead of SH045 was used as positive control and analyzed by an appropriate HPLC method with UV detection.
Negative controls contained either no NADPH, no MLM or HLM or none of them. The overall velocity (v) of degradation was calculated from altered SH045 concentration (∆c) obtained from reduction peak area ratio of SH045 as: v = ∆c / incubation time × concentration of enzyme × volume (nmol/ min × mg). […]

Series [2] relates to ischemic lungs explanted from mice. Also noted: method as in PMID 29522264. The settings on record: ex vivo; cited from earlier work.

Turning to `C=C[C@@](C)(O)CC[C@H]1C(=C)C[C@H](OC(=O)NC)[C@H]2C(C)(C)CCC[C@]12C` [SH045, (1S,4S,4aR,8aS)-4-((S)-3-Hydroxy-3-methylpent-4-en-1-yl)-4a,8,8-trimethyl-3-methylenedecahydronaphthalen-1-yl methylcarbamate], in series [1], the “cytochrome P450 isoenzymes metabolizing SH045” value was “substrate of CYP3A4 and CYP2A6”. In series [2], the “edema formation after reperfusion” value is “reduced edema formation”.
